Measured values: patent publication US8691753B2 (priority 2009, dated 2014)
Like-named read-outs stand apart in the source and are kept apart here.

What was measured:
Assay type in all cases: biochemical
[1] = target: MMP-9h (Homo sapiens (Human), UniProt P14780); test: Inhibition constant (Ki) on MMP-9h; conditions: human MMP-9
Summary of the method: (§1)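 Protocol from prior literature applied; inhibition constants measured for human enzymes only.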

[2] = target: MMP-3h (Homo sapiens (Human), UniProt P08254); test: Inhibition constant (Ki) on MMP-3h; conditions: human MMP-3
Chain of MMP-3h (P08254 100-477): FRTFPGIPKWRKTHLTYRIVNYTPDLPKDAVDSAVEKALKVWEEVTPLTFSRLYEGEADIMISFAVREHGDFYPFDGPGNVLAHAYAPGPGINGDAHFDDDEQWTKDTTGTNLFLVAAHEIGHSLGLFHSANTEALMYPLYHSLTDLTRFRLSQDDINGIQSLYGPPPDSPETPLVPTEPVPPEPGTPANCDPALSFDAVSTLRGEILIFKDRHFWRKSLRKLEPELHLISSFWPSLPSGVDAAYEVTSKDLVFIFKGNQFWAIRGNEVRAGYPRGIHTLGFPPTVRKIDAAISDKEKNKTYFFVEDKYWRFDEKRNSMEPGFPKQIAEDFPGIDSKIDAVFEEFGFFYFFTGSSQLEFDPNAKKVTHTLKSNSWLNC
Summary of the method: as §1

[3] = target: MMP-13h (Homo sapiens (Human), UniProt P45452); test: Inhibition constant (Ki) on MMP-13h; conditions: human MMP-13
Summary of the method: as §1

[4] = target: MMP-14h (Homo sapiens (Human), UniProt P50281); test: Inhibition constant (Ki) on MMP-14h; conditions: human MMP-14
Summary of the method: as §1

[5] = target: MMP-2h (Homo sapiens (Human), UniProt P08253); test: Inhibition constant (Ki) on MMP-2h; conditions: human MMP-2
Chain of MMP-2h (P08253 110-660): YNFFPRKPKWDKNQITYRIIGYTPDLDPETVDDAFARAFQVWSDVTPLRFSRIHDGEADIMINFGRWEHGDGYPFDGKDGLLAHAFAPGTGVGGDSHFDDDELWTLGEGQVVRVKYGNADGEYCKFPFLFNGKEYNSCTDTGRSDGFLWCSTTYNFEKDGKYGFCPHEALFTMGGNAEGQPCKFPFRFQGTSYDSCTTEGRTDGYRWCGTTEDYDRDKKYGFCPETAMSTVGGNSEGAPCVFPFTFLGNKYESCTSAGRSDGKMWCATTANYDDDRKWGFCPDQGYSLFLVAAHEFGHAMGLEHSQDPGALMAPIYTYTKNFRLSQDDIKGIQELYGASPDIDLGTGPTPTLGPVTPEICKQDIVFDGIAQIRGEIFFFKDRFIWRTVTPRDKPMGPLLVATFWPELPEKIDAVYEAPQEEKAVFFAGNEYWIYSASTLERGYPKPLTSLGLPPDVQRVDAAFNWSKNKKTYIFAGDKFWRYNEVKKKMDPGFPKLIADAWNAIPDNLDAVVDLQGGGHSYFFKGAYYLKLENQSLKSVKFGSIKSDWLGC
Summary of the method: as §1

[6] = target: MMP-8h (Homo sapiens (Human), UniProt P22894); test: Inhibition constant (Ki) on MMP-8h; conditions: human MMP-8
Chain of MMP-8h (P22894 101-467): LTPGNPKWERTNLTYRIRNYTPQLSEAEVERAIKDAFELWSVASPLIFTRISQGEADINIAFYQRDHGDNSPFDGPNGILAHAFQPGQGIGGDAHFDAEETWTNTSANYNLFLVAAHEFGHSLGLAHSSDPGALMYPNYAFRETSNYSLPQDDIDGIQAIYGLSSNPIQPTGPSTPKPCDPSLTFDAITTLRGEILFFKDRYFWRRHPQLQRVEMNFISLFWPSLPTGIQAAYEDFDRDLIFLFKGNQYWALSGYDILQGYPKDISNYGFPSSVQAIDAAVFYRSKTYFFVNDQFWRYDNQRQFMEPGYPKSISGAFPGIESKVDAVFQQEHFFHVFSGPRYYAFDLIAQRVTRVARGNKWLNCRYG

[7] = target: MMP-10h (Homo sapiens (Human), UniProt P09238); test: Inhibition constant (Ki) on MMP-10h; conditions: human MMP-10
Chain of MMP-10h (P09238 99-476): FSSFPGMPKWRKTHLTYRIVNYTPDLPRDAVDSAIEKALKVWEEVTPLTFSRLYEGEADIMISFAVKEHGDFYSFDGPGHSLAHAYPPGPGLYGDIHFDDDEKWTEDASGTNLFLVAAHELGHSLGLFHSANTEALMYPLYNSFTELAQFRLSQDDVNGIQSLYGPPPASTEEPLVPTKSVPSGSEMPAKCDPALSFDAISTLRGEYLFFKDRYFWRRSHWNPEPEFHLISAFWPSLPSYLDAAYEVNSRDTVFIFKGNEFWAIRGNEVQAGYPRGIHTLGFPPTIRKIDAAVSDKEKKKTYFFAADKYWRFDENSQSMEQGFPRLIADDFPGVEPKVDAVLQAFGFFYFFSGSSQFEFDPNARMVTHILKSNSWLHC

[8] = target: MMP-12h (Homo sapiens (Human), UniProt P39900); test: Inhibition constant (Ki) on MMP-12h; conditions: human MMP-12
Chain of MMP-12h (P39900 106-470): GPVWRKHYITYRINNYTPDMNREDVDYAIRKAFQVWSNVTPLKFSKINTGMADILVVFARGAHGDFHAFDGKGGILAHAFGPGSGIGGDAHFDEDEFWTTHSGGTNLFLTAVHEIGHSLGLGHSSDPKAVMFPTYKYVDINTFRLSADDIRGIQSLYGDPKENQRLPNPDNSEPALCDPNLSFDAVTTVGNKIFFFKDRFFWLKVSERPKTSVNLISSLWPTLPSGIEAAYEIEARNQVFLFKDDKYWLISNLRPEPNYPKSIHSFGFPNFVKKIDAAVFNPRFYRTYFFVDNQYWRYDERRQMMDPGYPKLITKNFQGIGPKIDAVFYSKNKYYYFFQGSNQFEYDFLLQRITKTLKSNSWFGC

Chain of MMP-9h (P14780 94-707): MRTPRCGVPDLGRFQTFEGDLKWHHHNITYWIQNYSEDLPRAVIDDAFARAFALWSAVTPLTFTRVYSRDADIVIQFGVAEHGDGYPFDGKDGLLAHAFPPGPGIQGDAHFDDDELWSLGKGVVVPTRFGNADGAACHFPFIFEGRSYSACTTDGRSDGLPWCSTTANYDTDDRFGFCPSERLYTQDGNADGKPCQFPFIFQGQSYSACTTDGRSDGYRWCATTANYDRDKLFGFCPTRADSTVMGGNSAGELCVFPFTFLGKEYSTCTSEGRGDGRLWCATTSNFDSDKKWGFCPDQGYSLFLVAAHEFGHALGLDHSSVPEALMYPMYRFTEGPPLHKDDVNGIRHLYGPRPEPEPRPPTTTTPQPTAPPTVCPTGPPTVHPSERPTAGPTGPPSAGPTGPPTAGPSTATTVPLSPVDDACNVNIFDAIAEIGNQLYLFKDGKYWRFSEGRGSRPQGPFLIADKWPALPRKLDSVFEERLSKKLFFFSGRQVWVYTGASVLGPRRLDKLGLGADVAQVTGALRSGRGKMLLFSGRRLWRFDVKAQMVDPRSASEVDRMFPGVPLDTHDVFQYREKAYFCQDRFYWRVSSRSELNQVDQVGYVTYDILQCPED

SMILES | Ki ([1]; read-out: Ki MMP-9h) [nM] | Ki ([2]; read-out: Ki MMP-3h) [nM] | Ki ([3]; read-out: Ki MMP-13h) [nM] | Ki ([4]; read-out: Ki MMP-14h) [nM] | Ki ([5]; read-out: Ki MMP-2h) [nM] | Ki ([6]; read-out: Ki MMP-8h) [nM] | Ki ([7]; read-out: Ki MMP-10h) [nM] | Ki ([8]; read-out: Ki MMP-12h) [nM] | Ki [1] [nM] | Ki [2] [nM] | Ki [3] [nM] | Ki [4] [nM] | Ki [5] [nM] | Ki [6] [nM] | Ki [7] [nM] | Ki [8] [nM]
NCCCC[C@H](NC(=O)[C@H](CCC(=O)O)NC(=O)CCc1ccc(-c2cccs2)cc1)C(N)=O [Compound 82, (S)-5-((S)-1,6-diamino-1-oxohexan-2-ylamino)-5-oxo-4-(3-(4-(thiophen-2-yl)phenyl)propanamido)pentanoic acid] | > 1000 | > 10000 | > 1000 | > 1000 | 234 | 73 | > 1000 | 44 | – | – | – | – | – | – | – | –
NC(=O)[C@H](CO)NC(=O)[C@H](CCC(=O)O)NC(=O)CCc1ccc(-c2ccccc2)cc1 [Compound 49, (S)-5-((S)-1-amino-3-hydroxy-1-oxopropan-2-ylamino)-4-(3-(biphenyl-4-yl)propanamido)-5-oxopentanoic acid] | > 1000 | > 5000 | > 1000 | > 1000 | 790 | 204 | > 1000 | 41 | – | – | – | – | – | – | – | –
O=C(O)CC[C@H](NC(=O)CCc1ccc(-c2ccc(-c3ccccc3)cc2)cc1)C(=O)Nc1cccc(CC(=O)O)c1 [Compound 71, (S)-5-(3-(carboxymethyl)phenylamino)-4-(3-(4′-phenylbiphenyl-4-yl)propanamido)-5-oxopentanoic acid] | 645 | 34 | 10.2 | 696 | 18.1 | 99 | 7.7 | 1.05 | – | – | – | – | – | – | – | –
NC(=O)[C@H](CCC(=O)O)NC(=O)[C@H](CCC(=O)O)NC(=O)CCc1ccc(-c2csnn2)cc1 [Compound 35, (S)-4-(3-(4-(1,2,3-thiadiazol-4-yl)phenyl)propanamido)-5-((S)-1-amino-4-carboxy-1-oxobutan-2-ylamino)-5-oxopentanoic acid] | – | – | – | – | – | – | – | – | 199 | 281 | 212 | 438 | 442 | 231 | 679 | 158
CC(C)C[C@H](NC(=O)CCc1ccc(-c2ccc(-c3ccccc3)cc2)cc1)C(=O)N[C@@H](CCC(=O)O)C(N)=O [Compound 79, (S)-5-amino-4-((S)-4-methyl-2-(3-(4′-phenylbiphenyl-4-yl)propanamido)pentanamido)-5-oxopentanoic acid] | > 100000 | 203 | 443 | > 10000 | > 1000 | > 1000 | > 1000 | > 1000 | – | – | – | – | – | – | – | –
NC(=O)[C@H](CCC(=O)O)NC(=O)[C@H](CC(=O)O)NC(=O)CCc1ccc(-c2ccc(-c3ccccc3)cc2)cc1 [Compound 74, (S)-5-amino-4-((S)-3-carboxy-2-(3-(4′-phenylbiphenyl-4-yl)propanamido)propanamido)-5-oxopentanoic acid] | > 1000 | 16 | 13.5 | > 1000 | 39 | 865 | 430 | 10.5 | – | – | – | – | – | – | – | –
NC(=O)CC[C@H](NC(=O)[C@H](CCC(N)=O)NC(=O)CCc1cc(-c2ccc(-c3ccccc3)cc2)no1)C(N)=O [Compound 22, (S)-2-(3-(3-(biphenyl-4-yl)isoxazol-5-yl)propanamido)-N^1-((S)-1,5-diamino-1,5-dioxopentan-2-yl)pentanediamide] | > 1000 | > 10000 | 436 | > 10000 | > 1000 | > 1000 | > 10000 | 830 | – | – | – | – | – | – | – | –
NC(=O)[C@H](CC(=O)O)NC(=O)[C@H](CC(=O)O)NC(=O)CCc1cc(-c2ccc(-c3ccccc3)cc2)no1 [Compound 19, (S)-4-amino-3-((S)-2-(3-(3-(biphenyl-4-yl)isoxazol-5-yl)propanamido)-3-carboxypropanamido)-4-oxobutanoic acid] | > 1000 | 750 | 24 | > 1000 | 52 | > 1000 | 527 | 54 | – | – | – | – | – | – | – | –
NC(=O)CC[C@H](NC(=O)[C@H](CCC(=O)O)NC(=O)CCc1ccc(-c2cccs2)cc1)C(N)=O [Compound 81, (S)-5-((S)-1,5-diamino-1,5-dioxopentan-2-ylamino)-5-oxo-4-(3-(4-(thiophen-2-yl)phenyl)propanamido)pentanoic acid] | > 1000 | > 10000 | 801 | > 1000 | 204 | 48 | 651 | 18.6 | – | – | – | – | – | – | – | –
NC(=O)CC[C@H](NC(=O)[C@H](CCC(=O)O)NC(=O)CCc1cc(-c2ccc(-c3ccccc3)cc2)no1)C(N)=O [Compound 21, (S)-4-(3-(3-(biphenyl-4-yl)isoxazol-5-yl)propanamido)-5-((S)-1,5-diamino-1,5-dioxopentan-2-ylamino)-5-oxopentanoic acid] | > 1000 | 105 | 49 | > 1000 | 39.3 | 261 | 256 | 5.4 | – | – | – | – | – | – | – | –
NC(=O)[C@H](CCC(=O)O)NC(=O)[C@H](CCC(=O)O)NC(=O)CCc1ccc(-c2cccc([N+](=O)[O-])c2)cc1 [Compound 55, (S)-5-amino-4-((S)-4-carboxy-2-(3-(3′-nitrobiphenyl-4-yl)propanamido)butanamido)-5-oxopentanoic acid] | – | – | – | – | – | – | – | – | 685 | 878 | 436 | > 5000 | > 1000 | > 1000 | > 1000 | 73
NC(=O)[C@H](Cc1ccc(O)cc1)NC(=O)[C@H](CCC(=O)O)NC(=O)CCc1ccc(-c2cccs2)cc1 [Compound 84, (S)-5-((S)-1-amino-3-(4-hydroxyphenyl)-1-oxopropan-2-ylamino)-5-oxo-4-(3-(4-(thiophen-2-yl)phenyl)propanamido)pentanoic acid] | 859 | > 5000 | 584 | > 1000 | 140 | 41 | 514 | 20.9 | – | – | – | – | – | – | – | –
Cc1csc(-c2ccc(CCC(=O)N[C@@H](CCC(=O)O)C(=O)N[C@@H](CCC(=O)O)C(N)=O)cc2)c1 [Compound 94, (S)-5-amino-4-((S)-4-carboxy-2-(3-(4-(4-methylthiophen-2-yl)phenyl)propanamido)butanamido)-5-oxopentanoic acid] | > 1000 | > 1000 | > 1000 | > 10000 | 868 | 233 | > 1000 | 22 | – | – | – | – | – | – | – | –
C[C@H](NC(=O)[C@H](CCC(=O)O)NC(=O)CCc1ccc(-c2ccc(-c3ccccc3)cc2)cc1)C(N)=O [Compound 66, (S)-5-((S)-1-amino-1-oxopropan-2-ylamino)-4-(3-(4′-phenylbiphenyl-4-yl)propanamido)-5-oxopentanoic acid] | > 10000 | 238 | 16.4 | > 10000 | 49 | 532 | 130 | 2.2 | – | – | – | – | – | – | – | –
NC(=O)[C@H](CCC(=O)O)NC(=O)[C@H](CCC(=O)O)NC(=O)CCc1ccc(-c2cccc(Cl)c2)cc1 [Compound 57, (S)-5-amino-4-((S)-4-carboxy-2-(3-(3′-chlorobiphenyl-4-yl)propanamido)butanamido)-5-oxopentanoic acid] | > 1000 | > 10000 | > 5000 | > 10000 | > 1000 | > 1000 | > 5000 | 57 | – | – | – | – | – | – | – | –
C[C@H](NC(=O)CCc1ccc(-c2ccc(-c3ccccc3)cc2)cc1)C(=O)N[C@@H](CCC(=O)O)C(N)=O [Compound 76, (S)-5-amino-4-((S)-2-(3-(4′-phenylbiphenyl-4-yl)propanamido)propanamido)-5-oxopentanoic acid] | > 5000 | 142 | 427 | > 5000 | 854 | > 1000 | > 10000 | 251 | – | – | – | – | – | – | – | –
Cc1ccsc1-c1ccc(CCC(=O)N[C@@H](CCC(=O)O)C(=O)N[C@@H](CCC(=O)O)C(N)=O)cc1 [Compound 107, (S)-5-amino-4-((S)-4-carboxy-2-(3-(4-(3-methylthiophen-2-yl)phenyl)propanamido)butanamido)-5-oxopentanoic acid] | > 10000 | > 10000 | > 1000 | > 5000 | > 1000 | 766 | > 1000 | 84 | – | – | – | – | – | – | – | –
COc1cccc(-c2ccc(CCC(=O)N[C@@H](CCC(=O)O)C(=O)N[C@@H](CCC(=O)O)C(N)=O)cc2)c1 [Compound 59, (S)-5-amino-4-((S)-4-carboxy-2-(3-(3′-methoxybiphenyl-4-yl)propanamido)butanamido)-5-oxopentanoic acid] | > 5000 | > 10000 | > 5000 | > 10000 | > 5000 | > 1000 | > 1000 | 35 | – | – | – | – | – | – | – | –
NC(=O)[C@H](CCC(=O)O)NC(=O)[C@H](CCC(=O)O)NC(=O)CCc1ccc(-n2cccc2)cc1 [Compound 36, (S)-4-(3-(4-(1H-pyrrol-1-yl)phenyl)propanamido)-5-((S)-1-amino-4-carboxy-1-oxobutan-2-ylamino)-5-oxopentanoic acid] | – | – | – | – | – | – | – | – | > 1000 | > 1000 | > 1000 | > 5000 | > 1000 | 373 | > 1000 | 59
